This note sets out measurements from patent publication US20070134391A1, “High-Potency Sweetener Composition for Treatment and/or Prevention of Autoimmune Disorders and Compositions Sweetened Therewith” (THE COCA-COLA COMPANY, priority 2005, published 2007).

Series [1] relates to panel of experts in the sensory evaluation of foods and beverages. As to the kind of experiment: Sensory evaluation of sweetness linger and sugar-like taste by expert panel. The class given is in vivo. The note with it: scale 0=no sweetness linger to 5=high sweetness linger. The procedure:
Sensory evaluation of the samples prepared in Example Set G was carried out under the following protocol, similar to that described hereinabove. In this test protocol, none of the samples were swallowed. All samples were expectorated and the mouth was rinsed with water after the tasting. Immediately upon sensing maximal sweetness, the sample was expectorated, the mouth was rinsed with water and the rate of sweetness decay (“Sweetness Linger”) was measured, where attention was focused on the sweetness 3-4 min after the water rinse. After sample tasting was complete, a salty oyster cracker was chewed followed by a water rinse, and at least 5 minutes followed before tasting the next sample. The sweetness linger was rated by a panel of experts in the sensory evaluation of foods and beverages using the following scale: 0=no sweetness linger, 1=very slight sweetness linger, 2=slight sweetness linger, 3=moderate sweetness linger, 4=moderately high sweetness linger, 5=high sweetness linger.
The “Sweetness Linger” rating for sucrose observed by this protocol is defined as 0. The Sweetness Linger of a 500 ppm of REBA control sample is defined as 5. Experimental samples were tasted by the same protocol, always allowing sufficient time between samples to ensure re-equilibration of the sensory system. Re-tasting of control samples during the course of the experiment was allowed and encouraged.
The comparison taste test was performed between two controls and addition of sweet taste improving additive on the onset and/or sweetness linger.
Sweet taste improving compositions were combined with a REBA solution to determine their effect on sweetness linger. Screening of the initial sample, or further dilutions, allowed identification of concentrations which were just above-threshold, herein defined as “near-threshold concentrations.” The near-threshold additive concentrations, a 6- to 100-fold higher higher additive concentration (depending on the off-taste intensity), and a mid-level additive concentration (halfway between the near-threshold and higher additive concentration) were evaluated to determine the effect on sweetness linger of a REBA solution.
Formulations of a 500 ppm EBA in a phosphoric acid solution (75%) at a pH of 2.5 with phosphoric acid or a pH of 3.1 with citric acid and potassium citrate were prepared prior to the addition of the additives at the three levels of concentration.
Sensory evaluation using the protocol described in Example Set G then was used to evaluate the sweetness linger of the REBA solutions.

Series [2] can be described thus: Rate of dissolution of rebaudioside A polymorph and amorphous forms in H2O. Type of series: physicochemical.
The mark [3] stands for this setting: Example Set G: citric acid/potassium citrate composition equivalent to diet lemon-lime beverage, 3-4 min after water rinse.
Where [4] appears, read: Example Set H: carbon-treated water with phosphoric acid (75%) to pH 2.4-2.5.

Consider `OC[C@H]1O[C@@](CO)(O[C@H]2O[C@H](CO)[C@@H](O)[C@H](O)[C@H]2O)[C@@H](O)[C@@H]1O` [sugar, sucrose], for which the sweetness linger in series [1] (setting [3]) and in series [1] (setting [4]) was 0 in each case.

For the compound rebaudioside A, the sweetness linger in series [1] (setting [3]) and in series [1] (setting [4]) was 5 each time.

With rebaudioside A [Form 1], the “Rate of dissolution in H2O at 25° C.” value in series [2] is “Very low (<0.2%/ %/60 minutes”.
